Data on eight compounds can be found in US20240067621A1, “POLYFLUORINATED CANNABINOID AND CANNABINOID-LIKE COMPOUNDS AND METHODS OF SYNTHESIS AND USE THEREOF” (The Board of Regents For The Oklahoma Agricultural And …, priority 2021, published 2024).

Data set [1] deals with cannabinoid receptors. The following applies: natural (trans) THC versus its cis counterpart; cited from earlier work.

`CCCCCc1cc(O)c2c(c1)OC(C)(C)[C@@H]1CCC(C)=C[C@@H]21` [THC, trans-Δ^9 -tetrahydrocannabinol]: the “affinity for cannabinoid receptors” value in data set [1] is given as “higher affinity”. The term melting point denotes the temperature of the solid-liquid transition. `COC(=O)C1=CCC(C)=CC1c1c(F)c(F)c(C(=O)OC)c(F)c1F` (centres unmarked) returned a melting point of 91 to 95 °C. For the compound `COC(=O)C1=CCC(C(C)(C)C)=CC1c1c(F)c(F)c(C#N)c(F)c1F` (centres unmarked), the melting point is 108 to 110 °C. Compound `COC(=O)C1=CCC(C)=CC1c1c(F)c(F)nc(F)c1F` (centres unmarked) came in with a melting point of 93 to 96 °C.

Regarding `COC(=O)C1=CCC(C(C)(C)C)=CC1c1c(F)c(F)nc(F)c1F` (centres unmarked), the melting point lay in the range of 59 to 60 °C. Same read-out and setting: next, `CC1=CC(c2c(F)c(F)c(C#N)c(F)c2F)C(C#N)=CC1` (centres unmarked): 117 to 120 °C. On the same count and under the same terms, next, `COC(=O)C1=CCC(OC(=O)OC(C)(C)C)=CC1c1c(F)c(F)c(C#N)c(F)c1F` (centres unmarked): 104 to 105 °C; `COC(=O)C1=CCC(C)=CC1c1c(F)c(F)c(C(F)(F)F)c(F)c1F` (centres unmarked): 104 to 105 °C.
